Where a SMILES comes first, the peptide text is derived from it. Where no end group is shown, it is not given here.
target: T1, HIV-1 protease (Human immunodeficiency virus type 1 group M subtype B, UniProt P04585); test: biochemical; conditions: not given
Description: HIV-1 protease was obtained and its active site concentration was determined at 25° C. Purified enzyme was stored as a 5-8 μM stock solution in 50 mM NaOAc (pH 5.0), 1 mM DTT, 1 mM EDTA, 0.05% reduced Triton X-100 at -80° C. Porcine pepsin was prepared as 1-2 mg/ml in 50 mM formic acid (pH 3.0). The peptide concentrations were adjusted for their protein content.
HIV-1 protease activity was measured at 25° C. using substrate I (Lys-Ala-Arg-Val-Nle-Phe (NO2) -Glu-Ala-Nle-NH2 wherein Nle is norleucine and Phe (NO2) is 4-nitrophenylalamine). In a typical assay, 2.5 μl of enzyme was added to 97.5 μl of buffer and 2.5 mM DTT in the presence or absence of varying concentrations of inhibitor. The reaction was initiated by the addition of 10 μl of a 4 mM solution of substrate I in water and monitored by following the decrease in absorption at […] in a 100 μl spectrophotometric cell. Pepsin was assayed using substrate II (Phe-Gly-His-Phe(NO2)-Phe-Ala-PheOCH3). […] Concentrations of substrate solutions were determined spectrophotometrically at […].
The enzyme was assayed in the presence of the inhibitor in 50 mM sodium formate at pH 4.25 and 2.5 mM DTT. […] Peptides 12a and 12b were assayed at pH 4.4 and contained 0.083% and 0.02% DMSO, respectively.

Going from `N[C@@H](CC(=O)O)C(=O)N[C@@H](CC(=O)O)C(=O)O` [Peptide 13, Asp--Asp] (H-Asp-Asp-OH) to `N[C@@H](CCC(=O)O)C(=O)O` [Peptide 16, Glutamic acid, reference compound], the Ki rises from 970 ± 140 µM to over 50000 µM.

First: N[C@@H](CC(=O)O)C(=O)O [Peptide 17, Aspartic acid, reference compound]
Second: FLREDLAF [Peptide 1, Phe--Leu--Arg--Glu--Asp--Leu--Ala--Phe]
The Ki of the first is higher: over 50000 µM for the first, 98 ± 10 µM for the second.

same assay, conditions: 50 mM sodium formate pH 4.25, 2.5 mM DTT, substrate I 390 μM, 25° C.; peptides 1, 2, 4 from apparent Km vs [I], others from 1/V vs [I]; read-out: Ki

Compound Glu--Lys--Phe (EKF) [Peptide 11] has a Ki of 2010 ± 360 µM.

same assay, conditions: Ki, 50 mM sodium formate pH 4.25, 2.5 mM DTT, substrate I 390 μM, 25° C.; peptides 1, 2, 4 from apparent Km vs [I], others from 1/V vs [I]

Compared with `CC(C)C[C@H](NC(=O)[C@H](CC(=O)O)NC(=O)[C@@H](N)CCC(=O)O)C(=O)N[C@@H](C)C(=O)O` [Peptide 3, Glu--Asp--Leu--Ala] (H-EDLA-OH), `N=C(N)NCCC[C@H](N)C(=O)N[C@@H](CCC(=O)O)C(=O)N[C@@H](CC(=O)O)C(=O)O` [Peptide 5, Arg--Glu--Asp] (H-Arg-Glu-Asp-OH) is 21-fold higher in Ki: 160 ± 20 µM for the first, 3360 ± 400 µM for the second.

`CC(C)C[C@H](NC(=O)[C@@H](N)CC(=O)O)C(=O)N[C@@H](C)C(=O)N[C@@H](Cc1ccccc1)C(=O)O` [Peptide 6, Asp--Leu--Ala--Phe] (H-DLAF-OH) and `CC(C)C[C@H](NC(=O)[C@H](CCC(=O)O)NC(=O)[C@@H](N)CC(=O)O)C(=O)O` [Peptide 7, Asp--Glu--Leu] (H-Asp-Glu-Leu-OH) are within error of each other in Ki: 270 ± 25 µM for the first, 230 ± 20 µM for the second.

Going from `CC(C)C[C@H](NC(=O)[C@H](CCC(=O)O)NC(=O)[C@@H](N)CCC(=O)O)C(=O)O` [Peptide 8, Glu--Glu--Leu] (H-Glu-Glu-Leu-OH) to `CC(C)C[C@H](NC(=O)[C@H](CC(=O)O)NC(=O)[C@@H](N)CC(=O)O)C(=O)O` [Peptide 9, Asp--Asp--Leu] (H-Asp-Asp-Leu-OH), the Ki falls from 310 ± 25 µM to 140 ± 6 µM (2.2-fold). The second binds more tightly here.

Going from `CC(C)C[C@H](NC(=O)[C@H](CC(N)=O)NC(=O)[C@@H](N)CCC(=O)O)C(=O)O` [Peptide 10, Glu--Asn--Leu] (H-Glu-Asn-Leu-OH) to `N[C@@H](CCC(=O)O)C(=O)N[C@@H](CC(=O)O)C(=O)N[C@@H](Cc1ccccc1)C(=O)O` [Peptide 12, Glu--Asp--Phe] (H-Glu-Asp-Phe-OH), the Ki falls from 3070 ± 210 µM to 25 ± 3 µM (120-fold).

`N[C@@H](CC(=O)O)C(=O)N[C@@H](CCC(=O)O)C(=O)O` [Peptide 14, Asp--Glu] (H-Asp-Glu-OH) and `NC(=O)CC[C@H](NC(=O)[C@@H](N)CC(=O)O)C(=O)O` [Peptide 15, Asp--Gln] (H-Asp-Gln-OH) cannot be ordered by Ki: 5400 ± 380 µM for the first, over 1000 µM for the second.

Going from “FLRQNLAF [Peptide 18, Phe--Leu--Arg--Gln--Asn--Leu--Ala--Phe]” to “GEDLAF [Peptide 2, Gly--Glu--Asp--Leu--Ala--Phe]”, the Ki falls from 2000 µM to 64 ± 13 µM (31-fold). The second binds more tightly here.

same assay, conditions: Ki, NaCl 0 M; 50 mM sodium formate pH 4.25, 2.5 mM DTT; 1/V vs [I]

Compared with `CC(C)C[C@H](NC(=O)[C@@H](N)CC(=O)O)C(=O)N[C@@H](C)C(=O)N[C@@H](Cc1ccccc1)C(=O)O` [Peptide 6, Asp--Leu--Ala--Phe] (H-DLAF-OH), `N[C@@H](CCC(=O)O)C(=O)N[C@@H](CC(=O)O)C(=O)N[C@@H](Cc1ccccc1)C(=O)O` [Peptide 12, Glu--Asp--Phe] (H-Glu-Asp-Phe-OH) is 18-fold lower in Ki: 270 ± 25 µM for the first, 15 ± 2 µM for the second. The second binds more tightly here.

same assay, conditions: Ki, NaCl 1 M; 50 mM sodium formate pH 4.25, 2.5 mM DTT; 1/V vs [I]

Compared with `CC(C)C[C@H](NC(=O)[C@@H](N)CC(=O)O)C(=O)N[C@@H](C)C(=O)N[C@@H](Cc1ccccc1)C(=O)O` [Peptide 6, Asp--Leu--Ala--Phe] (H-DLAF-OH), `N[C@@H](CCC(=O)O)C(=O)N[C@@H](CC(=O)O)C(=O)N[C@@H](Cc1ccccc1)C(=O)O` [Peptide 12, Glu--Asp--Phe] (H-Glu-Asp-Phe-OH) is 8-fold lower in Ki: 3260 ± 390 µM for the first, 410 ± 25 µM for the second. The second binds more tightly here.

same assay, conditions: Ki, pH 4.4; 0.083% (12a) and 0.02% (12b) DMSO; 1/V vs [I]

`N[C@@H](CC(=O)O)C(=O)N[C@@H](CC(=O)O)C(=O)N[C@@H](Cc1ccccc1)C(=O)O` [Peptide 12a, Asp--Asp--Phe] (H-Asp-Asp-Phe-OH) and `N[C@@H](Cc1ccccc1)C(=O)N[C@@H](CC(=O)O)C(=O)N[C@@H](CC(=O)O)C(=O)N[C@@H](Cc1ccccc1)C(=O)O` [Peptide 12b, Phe--Asp--Asp--Phe] (H-FDDF-OH) are within error of each other in Ki: 43 ± 7 µM for the first, 55 ± 14 µM for the second.

target: T1, HIV-1 protease; test: HIV-1 protease hydrolysis of synthetic cleavage-site peptide substrates (RP-HPLC, Lineweaver-Burk); assay type: biochemical; conditions: Gag cleavage sites
Description: […] Reactions were terminated with 190 μl of a solution of 8M guanidine hydrochloride and 1% trifluroacetic acid (TFA) and subjected to reverse-phase high performance liquid chromotography ("RP-HPLC") on a C18 column. The substrate and cleavage products were separated with a linear gradient of 0 to 50% acetonitrile in water containing 0.05% TFA. The identity of the cleavage products was confirmed by electrospray mass spectroscopy. Peak areas were integrated using the Turbochrom 4 software (Perkin Elmer, San Jose, Calif.). Lineweaver-Burk analysis was used to determine kcat and Km.

ARVL*AEAM and ATIM*MQRG are within 1.5-fold of each other in “kcat /Km” value: 90000 M⁻¹ s⁻¹ for the first, 74000 M⁻¹ s⁻¹ for the second.

Going from PGNF*LQSR to RQAN*FLGK, the “kcat /Km” value rises from 600 M⁻¹ s⁻¹ to 1600 M⁻¹ s⁻¹ (2.7-fold).

SQNY*PIVQ was tested, and the “kcat /Km” value was 45000 M⁻¹ s⁻¹.

same assay, conditions: Pol cleavage sites

Compared with AETF*YVDG, “DLAFLQGK [DLAF*LQGK, Asp-Leu-Ala-Phe-Leu-Gln-Gly-Lys]” is 8.3-fold lower in “kcat /Km” value: 10000 M⁻¹ s⁻¹ for the first, 1200 M⁻¹ s⁻¹ for the second.

Compared with “ERQANFLRED [ERQAN*FLRED, Glu-Arg-Gln-Ala-Asn-Phe-Leu-Arg-Glu-Asp]”, RKIL*FLDG is far higher in “kcat /Km” value: 0.019 M⁻¹ s⁻¹ for the first, 200000 M⁻¹ s⁻¹ for the second.

First: SFNF*PQIT
Second: TLNF*PISP
The “kcat /Km” value of the first is 3.4-fold lower: 7000 M⁻¹ s⁻¹ for the first, 24000 M⁻¹ s⁻¹ for the second.

target: T1, HIV-1 protease; test: biochemical; conditions: 1M NaCl, 50 mM sodium formate, pH 4.0, 2.5 mM DTT, 25° C.

Going from `CC(C)C[C@H](NC(=O)[C@@H](N)CC(=O)O)C(=O)N[C@@H](C)C(=O)N[C@@H](Cc1ccccc1)C(=O)O` [Peptide 6, Asp--Leu--Ala--Phe] (H-DLAF-OH) to `N[C@@H](CCC(=O)O)C(=O)N[C@@H](CC(=O)O)C(=O)N[C@@H](Cc1ccccc1)C(=O)O` [Peptide 12, Glu--Asp--Phe] (H-Glu-Asp-Phe-OH), the Ki falls from 3260 ± 390 µM to 410 ± 25 µM (8-fold). The second binds more tightly here.

system: mature HIV-1 protease; test: 50 mM sodium acetate, pH 5.0 or 100 mM sodium phosphate at pH 5.5 containing 1 mM DTT, 1 mM EDTA, 1M NaCl; conditions: 37° C.

With DLAFLQGK the cleaved bond was “Phe-Leu”.
For ERQANFLRED, the cleaved bond was “Asn-Phe”.
